Results taken from patent US10934255B2, “Nrf and HIF activators/HDAC inhibitors and therapeutic methods using the same” (THE BOARD OF TRUSTEES OF THE UNIVERSITY OF ILLINOIS, priority 2017, dated 2021).

Experiments:
[1] = liver-on-a-chip assay, viability of HepaRG hepatocytes by MTT; type: cell-based; conditions: human, HepaRG hepatocytes in liver-on-a-chip, read-out: LC50
[2] = test system: mouse neuronal N2a cells; assay: MPP+ neurotoxicity in N2a cells (Presto-Blue); type: cell-based; conditions: 5 μM compound, MPP+ 100 μM, 24 h
Protocol: FIG. 2B contains bar graphs showing test compounds at 5 μM protected N2a cells against MPP+(100 μM) insult. Cell viability was measured at 24 h using Presto-Blue assay.
(§1) II-ING-6 and II-ING-66, were tested in neuronal cell lines subjected to H2O2 and MPP+-induced toxicity (Parkinson's disease model), and in a composite model of ischemia-reperfusion injury: oxygen glucose deprivation (OGD). In H2O2-induced neurotoxicity in human neuronal SH-SY5Y cells, neuroprotective properties of compounds II-ING-6 and II-ING-66 were assessed using 24 h pretreatment regimen (FIG. 2A). […] Neuroprotection against OGD is expected to be mediated by HIF-1α and Nrf2. In this assay, after pretreatment of cells 24 h prior to OGD insult, both compounds were neuroprotective (FIG. 3A).

[3] = test system: human neuronal SH-SY5Y cells; assay: H2O2-induced neurotoxicity in SH-SY5Y cells (MTT); type: cell-based; conditions: 24 h pretreatment, MTT at 24 h
Protocol: FIG. 2A contains bar graphs showing the concentration-dependent neuroprotection of SH-SY5Y cells from H2O2-induced toxicity. Cell viability was measured using the MTT assay at 24 h. […] (B) Test compounds at 5 μM protected N2a cells against MPP+ (100 μM) insult. Cell viability was measured at 24 h using Presto-Blue assay.
as §1

[4] = test system: SH-SY5Y cells; assay: Oxygen glucose deprivation (OGD) in SH-SY5Y cells (MTT); type: cell-based, human; conditions: for Neuroprotection against OGD, pretreatment: pretreatment 24 h prior to OGD insult; for Neuroprotection against OGD, post-treatment: treatment after OGD
Protocol: FIG. 3A contains bar graphs showing a concentration dependence of II-ING-6 and II-ING-66 neuroprotection in SH-SY5Y cells subject to OGD: 24 h pretreatment.
FIG. 3B contains bar graphs showing concentration dependencies of II-ING-6 and II-ING-66 neuroprotection in SH-SY5Y cells subject to OGD: treatment post OGD. Cell viability was measured using the MTT assay 24 h post insult.
as §1

[5] = molecular target: HDAC4 (Homo sapiens, UniProt P56524); assay: HDAC4 isoform selectivity assay; type: biochemical; conditions: Table 2 isoform selectivity; read-out: HDAC Inhibition (IC50 uM) isoform 4
Chain of HDAC4 (P56524 whole entry, the tested form may be a part, canonical isoform): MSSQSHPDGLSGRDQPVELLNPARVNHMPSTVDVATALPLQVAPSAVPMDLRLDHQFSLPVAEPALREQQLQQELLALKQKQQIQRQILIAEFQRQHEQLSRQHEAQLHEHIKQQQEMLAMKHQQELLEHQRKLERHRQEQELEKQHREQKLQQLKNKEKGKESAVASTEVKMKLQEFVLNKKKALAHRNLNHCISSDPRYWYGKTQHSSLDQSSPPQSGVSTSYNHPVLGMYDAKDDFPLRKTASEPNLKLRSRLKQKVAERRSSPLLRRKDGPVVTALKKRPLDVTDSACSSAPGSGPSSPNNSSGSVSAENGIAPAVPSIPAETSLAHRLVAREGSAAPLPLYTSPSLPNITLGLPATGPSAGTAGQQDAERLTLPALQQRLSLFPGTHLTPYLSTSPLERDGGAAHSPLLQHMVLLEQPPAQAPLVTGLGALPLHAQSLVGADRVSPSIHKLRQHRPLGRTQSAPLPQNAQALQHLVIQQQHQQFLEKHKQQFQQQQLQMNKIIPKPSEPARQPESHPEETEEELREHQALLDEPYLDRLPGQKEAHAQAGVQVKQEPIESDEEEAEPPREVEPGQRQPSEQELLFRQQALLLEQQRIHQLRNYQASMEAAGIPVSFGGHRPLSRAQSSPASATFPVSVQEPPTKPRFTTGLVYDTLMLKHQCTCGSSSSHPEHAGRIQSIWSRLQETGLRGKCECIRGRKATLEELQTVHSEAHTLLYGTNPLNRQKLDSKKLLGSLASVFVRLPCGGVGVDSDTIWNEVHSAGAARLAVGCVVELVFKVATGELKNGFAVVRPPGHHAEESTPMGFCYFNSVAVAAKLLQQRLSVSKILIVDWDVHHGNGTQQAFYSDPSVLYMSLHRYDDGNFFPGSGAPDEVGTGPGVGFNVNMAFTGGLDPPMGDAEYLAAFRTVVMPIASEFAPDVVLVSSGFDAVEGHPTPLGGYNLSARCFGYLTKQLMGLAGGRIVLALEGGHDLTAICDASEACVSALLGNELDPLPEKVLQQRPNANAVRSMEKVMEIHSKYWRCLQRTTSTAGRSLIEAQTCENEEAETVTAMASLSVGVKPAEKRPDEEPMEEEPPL
Protocol: (§2) The HDAC1, 2, 4, 5, 6, 7, 8, 9, 10, and 11 assays used isolated recombinant human protein; HDAC3/NcoR2 complex was used for the HDAC3 assay. Substrate for HDAC1, 2, 3, 6, 10, and 11 assays is a fluorogenic peptide from p53 residues 379-382 (RHKKAc); substrate for HDAC8 is fluorogenic diacyl peptide based on residues 379-382 of p53 (RHKAcKAc). Acetyl-Lys(trifluoroacetyl)-AMC substrate was used for HDAC4, 5, 7, and 9 assays. Compounds were dissolved in DMSO and tested in 10-dose IC50 mode with 3-fold serial dilution starting at 30 μM. Control Compound Trichostatin A (TSA) was tested in a 10-dose IC50 with 3-fold serial dilution starting at 5 μM. IC50 values were extracted by curve-fitting the dose/response slopes. Assays were performed in duplicate and IC50 values are an average of data from both experiments.

[6] = test system: C57BL/6 mice; assay: Behavioral screening in the SmartCube (SC) platform; type: in vivo; conditions: 50 mg/kg ip
Protocol: FIG. 4 contains the SC signature of II-ING-6 (50 mg/kg, ip) showing anxiolytic activity.
Another evidence that II-ING-6 is can cross the BBB was obtained from SC (Frontiers in Neuroscience 2011, 5 (103), p. 1-4) experiment. SC provides a sequence of challenges to mice and captures more than 2,000 features during a 1 hour testing session. These features are analyzed with computer algorithms and data mining approaches to automate the study of mice behavior and compared to a database of behavioral signatures obtained using a set of diverse reference compounds, including antidepressants, cognitive enhancers, antipsychotics, and anxiolytics. In this assay, C57BL/6 mice were injected with compound II-ING-6 at 50 mg/kg (ip).

[7] = test system: panel of 43 cloned human and rodent CNS receptors, channels and transporters; assay: PDSP selectivity panel; type: binding; conditions: 43 CNS receptors
Protocol: Compound II-ING-6 also was tested in a panel of 43 cloned human and rodent CNS receptors, channels and transporters using the NIMH sponsored Psychoactive Drug Screening Program (PDSP).

[8] = molecular target: T1, HDAC8 (Homo sapiens, UniProt Q9BY41); assay: HDAC8 isoform selectivity assay; type: biochemical; conditions: Table 2 isoform selectivity; read-out: HDAC Inhibition (IC50 uM) isoform 8
T1 sequence (Q9BY41 1-377): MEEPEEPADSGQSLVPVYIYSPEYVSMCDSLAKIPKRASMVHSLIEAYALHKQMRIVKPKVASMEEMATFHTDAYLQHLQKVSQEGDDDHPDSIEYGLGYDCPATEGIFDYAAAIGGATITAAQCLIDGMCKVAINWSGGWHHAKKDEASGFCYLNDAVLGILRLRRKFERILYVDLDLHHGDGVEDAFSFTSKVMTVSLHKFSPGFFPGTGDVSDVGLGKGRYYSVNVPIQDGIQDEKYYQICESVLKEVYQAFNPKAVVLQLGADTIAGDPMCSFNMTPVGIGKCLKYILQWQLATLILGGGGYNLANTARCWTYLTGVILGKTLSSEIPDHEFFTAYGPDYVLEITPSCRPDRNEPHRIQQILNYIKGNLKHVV
Protocol: as §2

[9] = molecular target: T2, HDAC10 (Homo sapiens, UniProt Q969S8); assay: HDAC10 isoform selectivity assay; type: biochemical; conditions: Table 2 isoform selectivity; read-out: HDAC Inhibition (IC50 uM) isoform 10
T2 sequence (Q969S8 1-669): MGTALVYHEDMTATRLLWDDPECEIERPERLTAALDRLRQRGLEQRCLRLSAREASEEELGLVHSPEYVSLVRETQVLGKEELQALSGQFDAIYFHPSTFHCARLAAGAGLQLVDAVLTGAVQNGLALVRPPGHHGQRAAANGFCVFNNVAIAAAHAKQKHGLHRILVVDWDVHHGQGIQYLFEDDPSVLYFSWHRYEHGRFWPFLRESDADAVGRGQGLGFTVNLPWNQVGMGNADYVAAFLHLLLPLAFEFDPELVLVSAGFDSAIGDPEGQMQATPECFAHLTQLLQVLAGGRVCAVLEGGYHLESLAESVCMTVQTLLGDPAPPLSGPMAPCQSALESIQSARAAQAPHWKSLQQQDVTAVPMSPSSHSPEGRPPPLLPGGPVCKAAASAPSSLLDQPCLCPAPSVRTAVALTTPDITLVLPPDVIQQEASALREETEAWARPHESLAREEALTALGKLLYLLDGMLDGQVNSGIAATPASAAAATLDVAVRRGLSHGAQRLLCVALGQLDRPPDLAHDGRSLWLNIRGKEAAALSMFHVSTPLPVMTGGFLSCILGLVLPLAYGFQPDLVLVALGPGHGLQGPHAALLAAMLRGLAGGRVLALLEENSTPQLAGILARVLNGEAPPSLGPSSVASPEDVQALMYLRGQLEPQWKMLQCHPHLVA
Protocol: as §2

| SMILES | CC50 at 48 h [1] [nM] | Protection against MPP+ neurotoxicity [2] | Neuroprotection from H2O2-induced toxicity [3] | Neuroprotection against OGD, pretreatment [4] | Neuroprotection against OGD, post-treatment [4] | IC50 [5] [µM] | SC signature (behavioral class) [6] | Activity in PDSP panel [7] | IC50 [8] [µM] | IC50 [9] [µM] |
| --- | --- | --- | --- | --- | --- | --- | --- | --- | --- | --- |
| O=C(NO)c1ccc(CN2C(=O)C(F)(F)c3ccccc32)cc1 [II-ING-66, 4-((3,3-Difluoro-2-oxoindolin-1-yl)methyl)-N-hydroxybenzamide] | > 500000 | significant protection | Significant neuroprotection | neuroprotective | significant neuroprotection only for compound II-ING-6 | – | – | – | – | – |
| O=C(NO)c1ccc(CN2CCc3ccc(Cl)cc32)cc1 [II-ING-6, 4-((6-Chloroindolin-1-yl)methyl)-N-hydroxybenzamide] | > 500000 | significant protection | Significant neuroprotection | neuroprotective | significant neuroprotection | 3.48 | anxiolytic effect | No significant activity | 0.53 | 6.39 |
| Cn1c(NCc2ccc(C(=O)NO)cc2)nc2ccccc21 [II-ING-13, N-Hydroxy-4-(((1-methyl-1H-benzo[d]imidazol-2-yl)amino)methyl)benzamide] | – | – | – | – | – | 2.42 | – | – | 0.17 | 5.95 |
| O=C(NO)c1ccc(CN2CCc3ccc(F)cc32)cc1 [II-ING-41, 4-((6-Fluoroindolin-1-yl)methyl)-N-hydroxybenzamide] | – | – | – | – | – | 2.41 | – | – | 0.19 | 6.03 |
